In PMC10649063, “Optimization of a Novel Tyrosinase Inhibitory Peptide from Atrina pectinata Mantle and Its Molecular Inhibitory Mechanism” (Foods, 2023):
“Also recorded” adds a separate entry of the source. Read-outs that look alike come from different tables or passages of the source. Peptide text beside a SMILES is read from it.

Assays:
Mushroom tyrosinase = biological target: T1, Mushroom tyrosinase (Agaricus bisporus, UniProt C7FF04); test: Tyrosinase inhibitory activity (L-tyrosine substrate, absorbance at 475 nm); format: biochemical
T1 construct: purchased Beijing Solarbio Biotechnology Co., Ltd
Method: Tyrosinase inhibitory activity was determined in conformity with. With reference to the reagent addition in Table 1, we added phosphate buffer solution (PBS, pH 6.8, 0.1 mol/L), sample solutions and L-tyrosine solution (L-Tyr, 0.5 mg/mL, pH 6.8 in PBS) to each well in a 96-well plate. These were mixed well and incubated at 37 °C for 10 min. Then, 20 μL of mushroom tyrosinase solution (500 U/mL) was added, mixed and reacted at 37 °C for 15 min, and monitored at 475 nm. The tyrosinase inhibition rate (Y) was calculated as follows:(1) Y=(1−A4−A3/A2−A1)×100% where A4 is the absorbance of the reaction well of the sample, A3 is the absorbance value of the sample background well, A2 is the absorption value of the solvent reaction well and A1 is the absorbance of the solvent background well.

[1] = biological target: Mushroom tyrosinase (Agaricus bisporus) (UniProt C7FF04); test: enzyme inhibition kinetics (Lineweaver-Burk); tyrosinase with L-tyrosine as substrate; KI and KIS from the slope ratio and intercept ratio of the Lineweaver-Burk lines with and without YYP; YYP 2 mM
[2] = biological target: Mushroom tyrosinase (Agaricus bisporus) (UniProt C7FF04); test: enzyme inhibition kinetics (Lineweaver-Burk); tyrosinase with L-tyrosine as substrate; KI and KIS from the slope ratio and intercept ratio of the Lineweaver-Burk lines with and without YYP; YYP 0.5 mM
[3] = biological target: Mushroom tyrosinase (Agaricus bisporus) (UniProt C7FF04); test: enzyme inhibition kinetics (Lineweaver-Burk); tyrosinase with L-tyrosine as substrate; KI and KIS from the slope ratio and intercept ratio of the Lineweaver-Burk lines with and without YYP; YYP 1 mM
[4] = biological target: Mushroom tyrosinase (Agaricus bisporus) (UniProt C7FF04)
tyrosinase = biological target: T2, tyrosinase (Agaricus bisporus, UniProt C7FF04); test: Enzyme inhibition kinetic assay (enzyme concentration vs. rate, Lineweaver–Burk plots); format: biochemical, mushroom; details: for Ki: Inhibition Constant KI (mM), enzyme–inhibitor complex; for Inhibition Constant KIS: enzyme–inhibitor–substrate complex
T2 construct: purchased Beijing Solarbio Biotechnology Co., Ltd
Excerpt: The Lineweaver–Burk double-inverse curve was obtained by taking the reciprocal of the substrate concentration (1/[S]) as the horizontal coordinate and the reciprocal of the initial reaction rate (1/V) as the vertical coordinate to determine the type of inhibition and to calculate the Mie constant (KM) and the maximum reaction rate (Vmax).
To elucidate the mechanism of inhibition of tyrosinase by YYP, kinetic studies were used to investigate the kinetic characterization of the inhibitory response (Figure 6).
The Lineweaver–Burk double-inverse plot of the inhibitory effect of YYP on tyrosinase is illustrated in Figure 6. The 1/V were both fitted linearly to the 1/[S] (R^2 and p-values shown in Table 10) and intersected in the second quadrant of the graph. As the amount of YYP increased, the value of KM increased and the value of Vmax decreased.
The mixed-inhibitory type inhibits tyrosinase via two distinct pathways: competitively forming enzyme–inhibitor (EI) complexes and interrupting enzyme–substrate–inhibitor (ESI) complexes in a noncompetitive manner. The inhibition constant KI or KIS is the dissociation constant for the dissociation of the inhibitor (I) from the EI complexs or the enzyme–inhibitor–substrate (EIS) complexs. Both baicalein and cinnamic acid derivatives are reversible mixed-type inhibitors. […] Summarized in Table 10, based on the slope ratio and intercept ratio of the Lineweaver–Burk curve (with and without the presence of samples), the KI and KIS can be obtained.

[5] = synthetic peptides, read-out: Tyrosinase Inhibitory Activity (IC50)

T1 sequence (C7FF04 1-392 limits assumed): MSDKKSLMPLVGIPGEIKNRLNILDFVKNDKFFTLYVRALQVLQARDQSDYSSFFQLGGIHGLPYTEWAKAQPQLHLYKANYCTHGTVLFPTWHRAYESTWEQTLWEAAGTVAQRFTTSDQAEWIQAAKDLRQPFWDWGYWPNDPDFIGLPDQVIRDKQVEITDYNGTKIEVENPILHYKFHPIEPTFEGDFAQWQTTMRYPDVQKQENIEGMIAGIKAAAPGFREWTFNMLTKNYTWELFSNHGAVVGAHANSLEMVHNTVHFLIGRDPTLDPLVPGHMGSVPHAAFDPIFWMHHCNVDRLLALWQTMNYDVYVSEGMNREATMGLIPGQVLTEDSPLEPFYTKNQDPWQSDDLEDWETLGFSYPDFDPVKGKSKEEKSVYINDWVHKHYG

`CC(C)[C@H](NC(=O)[C@H](CCCNC(=N)N)NC(=O)[C@@H](N)Cc1ccccc1)C(=O)N[C@@H](CCCCN)C(=O)O` [FRVK, Phe-Arg-Val-Lys] (H-FRVK-OH; N-terminus and C-terminus assumed) showed an IC50 (Mushroom tyrosinase; [5]) of 5.87 ± 0.068 mM.

With Tyr-Tyr-Pro (YYP) (peptide) the KIS (inhibitor from the enzyme-inhibitor-substrate complex) [1] was 12.1 mM, the KIS (inhibitor from the enzyme-inhibitor-substrate complex) [2] was 8.38 mM and the KIS (inhibitor from the enzyme-inhibitor-substrate complex) [3] was 11.4 mM. The Tyrosinase Inhibitory Activity (IC50, mM); oxidation of L-tyrosine by mushroom tyrosinase read at 475 nm [4] was 1.76 mM.

Molecule `O=C(O)[C@H](Cc1ccccc1)NC(=O)[C@H](Cc1c[nH]cn1)NC(=O)[C@H](Cc1c[nH]cn1)NC(=O)[C@@H]1CCCN1` [PHHF, Pro-His-His-Phe] (H-PHHF-OH; N-terminus and C-terminus assumed) has an IC50 (Mushroom tyrosinase; [5]) of over 10 mM.

Molecule `CC(C)C[C@H](NC(=O)[C@H](Cc1ccc(O)cc1)NC(=O)[C@@H]1CCCN1)C(=O)N[C@@H](CCCCN)C(=O)O` [PYLK, Pro-Tyr-Leu-Lys] (H-PYLK-OH; N-terminus and C-terminus assumed) has an IC50 (Mushroom tyrosinase; [5]) of over 10 mM.

`N[C@@H](Cc1ccc(O)cc1)C(=O)N[C@@H](Cc1ccc(O)cc1)C(=O)N1CCC[C@H]1C(=O)O` [YYP, Tyr-Tyr-Pro] (H-Tyr-Tyr-Pro-OH; N-terminus and C-terminus assumed) was tested, and the Ki (tyrosinase; YYP 0.5 mM) was 0.245 mM, the Ki (tyrosinase; YYP 1 mM) was 0.283 mM and the Ki (tyrosinase; YYP 2 mM) was 0.428 mM. The “Type of tyrosinase inhibition” value (tyrosinase; Lineweaver–Burk analysis) was “mixture of noncompetitive and competitive types; also recorded: mixed type of inhibition; also recorded: hybrid”, the “Maximum Reaction Speed Vmax (A475/min)” value (tyrosinase; YYP 0.5 mM) was 0.0212 A475/min and the “Inhibition Constant KIS” value (tyrosinase; YYP 0.5 mM) was 8.3833 mM. The “Maximum Reaction Speed Vmax (A475/min)” value (tyrosinase; YYP 1 mM) was 0.0206 A475/min, the “Inhibition Constant KIS” value (tyrosinase; YYP 1 mM) was 11.4139 mM and the “Maximum Reaction Speed Vmax (A475/min)” value (tyrosinase; YYP 2 mM) was 0.0192 A475/min. For the same molecule, the “Inhibition Constant KIS” value (tyrosinase; YYP 2 mM) was 12.1276 mM, the “Reversibility of tyrosinase inhibition” value (tyrosinase; enzyme concentration vs. initial rate at different YYP concentrations) was “reversible” and the IC50 (Mushroom tyrosinase) was 1.76 ± 0.025 mM.

Work on Pro-Tyr-Leu-Lys (PYLK) (peptide) yielded a Tyrosinase Inhibitory Activity (IC50, mM); oxidation of L-tyrosine by mushroom tyrosinase read at 475 nm [4] of over 10 mM.

FRVK [Phe-Arg-Val-Lys (FRVK)] gave a Tyrosinase Inhibitory Activity (IC50, mM); oxidation of L-tyrosine by mushroom tyrosinase read at 475 nm [4] of 5.87 mM.

In the case of PHHF [Pro-His-His-Phe (PHHF)], the Tyrosinase Inhibitory Activity (IC50, mM); oxidation of L-tyrosine by mushroom tyrosinase read at 475 nm [4] is reported as over 10 mM.
